Patent publication US20250197384A1, “AZOLE COMPOUND AND ANTIFUNGAL AGENT” (NIHON NOHYAKU CO., LTD., priority 2022, published 2025)
≈ marks a conversion by molar mass, not a printed value.

Experiments:
Assay type in all cases: cell-based
[1] = system: Aspergillus fumigatus TIMM0063; assay: In vitro anti-Aspergillus activity test; details: Table 22, 35° C. for 48 hr, alamar Blue, minimum concentration showing 80% or more inhibition
Experimental: Aspergillus fumigatus TIMM0063 was used as the strain. The test fungi were cultured on a Potato dextrose agar slant medium at 35° C. for 4 days, and then sterilized saline containing 0.1% (v/v) Tween 80 was added to release the conidia. This conidial suspension was filtered through sterile gauze, and the number of conidia was counted using a hemocytometer. The same solution was adjusted to a conidial concentration of 1×10^6 conidia/mL, and this was used as an inoculum. Each compound was dissolved in dimethyl sulfoxide to a predetermined concentration, and diluted 50-fold with 0.165 M MOPS buffered RPMI 1640 liquid medium, and each diluted solution was dispensed into a 96-well microplate by each 100 μL. The inoculum was diluted 50-fold with 0.165 M MOPS buffered RPMI 1640 liquid medium containing 20% alamar Blue™, and the diluted solution was inoculated into the 96-well microplate containing the compound by each 100 μL (final inoculum amount 1.0×10^4 conidia/mL). After static culture at 35° C. for 48 hr, the degree of color development of the alamar Blue™ was measured using a microplate reader (O.D. 570-595 nm), and the minimum concentration showing 80% or more inhibition was defined as the minimum inhibitory concentration (MIC).

[2] = system: Trichophyton rubrum NBRC6203; assay: In vitro anti-tinea fungus activity test (T. rubrum); details: Table 22, 27° C. for 5 days, alamar Blue, minimum concentration showing 80% or more inhibition
Experimental: (§1) Trichophyton rubrum NBRC6203 and Trichophyton mentagrophytes TIMM2789 were used as the strains. The test fungi were cultured on a Sabouraud dextrose agar slant medium at 27° C. for 10-13 days, and then suspended in sterilized saline. The number of cells in this suspension was counted using a hemocytometer, and the same suspension was adjusted to a cell concentration of 2×10^6 conidia/mL, and this was used as an inoculum. Each compound was dissolved in dimethyl sulfoxide to a predetermined concentration, and diluted 50-fold with 0.165 M MOPS buffered RPMI 1640 liquid medium, and each diluted solution was dispensed into a 96-well microplate by each 100 μL. The inoculum was diluted 50-fold with 0.165 M MOPS buffered RPMI 1640 liquid medium containing 20% alamar Blue™, and the diluted solution was inoculated into the 96-well microplate containing the compound by each 100 μL (final inoculum amount 2×10^4 conidia/mL). After static culture at 27° C. for 3 days (Trichophyton mentagrophytes) or for 5 days (Trichophyton rubrum), the degree of color development of the alamar Blue™ was measured using a microplate reader (O.D. 570-595 nm), and the minimum concentration showing 80% or more inhibition was defined as the minimum inhibitory concentration (MIC).

[3] = system: Trichophyton mentagrophytes TIMM2789; assay: In vitro anti-tinea fungus activity test (T. mentagrophytes); details: Table 22, 27° C. for 3 days, alamar Blue, minimum concentration showing 80% or more inhibition
Experimental: as §1

[4] = system: Candida albicans NBRC1270; assay: In vitro anti-Candida activity test; details: Table 22, 35° C. for 24 hr, alamar Blue, minimum concentration showing 80% or more inhibition
Experimental: Candida albicans NBRC1270 was used as the strain. The test fungi were cultured on a Sabouraud dextrose agar slant medium at 35° C. for 24 hr, and then suspended in sterilized saline. The number of cells in this suspension was counted using a hemocytometer, and the same suspension was adjusted to a cell concentration of 1.5×10^5 cells/mL, and this was used as an inoculum. Each compound was dissolved in dimethyl sulfoxide to a predetermined concentration, and diluted 50-fold with 0.165 M MOPS buffered RPMI 1640 liquid medium, and each diluted solution was dispensed into a 96-well microplate by each 100 μL. The inoculum was diluted 50-fold with 0.165 M MOPS buffered RPMI 1640 liquid medium containing 20% alamar Blue™, and the diluted solution was inoculated into the 96-well microplate containing the compound by each 100 μL (final inoculum amount 1.5×10^3 cells/mL). After static culture at 35° C. for 24 hr, the degree of color development of the alamar Blue™ was measured using a microplate reader (O.D. 570-595 nm), and the minimum concentration showing 80% or more inhibition was defined as the minimum inhibitory concentration (MIC).

| minimum inhibitory concentration against various fungi (MIC) A. fumigatus [1] [ng/mL] | minimum inhibitory concentration against various fungi (MIC) T. rubrum [2] [ng/mL] | minimum inhibitory concentration against various fungi (MIC) T. mentagrophytes [3] [ng/mL] | minimum inhibitory concentration against various fungi (MIC) C. albicans [4] [ng/mL] | Compound |
| --- | --- | --- | --- | --- |
| 5 (≈ 12.7 nM) | ≤1 | 10 (≈ 25.5 nM) | 5 (≈ 12.7 nM) | CCO/N=C/c1cnc(C2CS/C(=C(/C#N)n3cncn3)S2)c(Cl)c1 (stereo not drawn) [compound 21] |
| 5 (≈ 11 nM) | ≤1 | 10 (≈ 22 nM) | 0.6 (≈ 1.32 nM) | N#C/C(=C1/SCC(c2ncc(/C=N/OCc3ccccc3)cc2Cl)S1)n1cncn1 (stereo not drawn) [compound 23] |
| 2.5 (≈ 6.62 nM) | ≤1 | ≤1 | 2.5 (≈ 6.62 nM) | CO/N=C/c1cnc(C2CS/C(=C(/C#N)n3ccnc3)S2)c(Cl)c1 (stereo not drawn) [compound 24] |
